Results taken from the NIST ThermoML archive (doi:10.1021/acs.jced.7b00788).

Assays:
[1] = 100 kPa, Liquid; for viscosity: Concentric cylinders viscometry; for mass density: Vibrating tube method
[2] = xn = mol fraction of the nth substance listed; conditions: 100 kPa, Liquid, x1 = 1; for viscosity: Concentric cylinders viscometry; for mass density: Vibrating tube method

O [water]
[1]
Conditions	mass density [kg/m3]	viscosity [mPa·s]
293.15 K	1000.1	1
303.15 K	998	0.805
313.15 K	994.3	0.651
323.15 K	–	0.544
333.15 K	985.2	0.472
343.15 K	979.6	0.417
353.15 K	973.3	0.342

CCOP(=O)([O-])OCC.CCn1cc[n+](C)c1 [1-ethyl-3-methylimidazolium diethyl phosphate]
[1]
Conditions	mass density [kg/m3]	viscosity [mPa·s]
293.15 K	1151.2	540
303.15 K	1144.2	274
313.15 K	1137.4	154
323.15 K	1130.7	94
333.15 K	1124.1	61.2
343.15 K	1117.5	42.1
353.15 K	1111	30.2
363.15 K	1104.5	22.5
373.15 K	1098.2	17.3

C[S+](C)[O-] [dimethyl sulfoxide]
[1]
Conditions	mass density [kg/m3]	viscosity [mPa·s]
293.15 K	1101.2	2.31
303.15 K	1091.2	1.89
313.15 K	1081.1	1.57
323.15 K	1071.1	1.33
333.15 K	1061.2	1.15
343.15 K	1051.3	1.01
353.15 K	1041.1	0.893
363.15 K	1031.3	0.799
373.15 K	1021.4	0.721

O [water] + CCOP(=O)([O-])OCC.CCn1cc[n+](C)c1
[2]
Conditions	mass density [kg/m3]	viscosity [mPa·s]
293.15 K	1000.1	1
303.15 K	998	0.805
313.15 K	994.3	0.651
323.15 K	–	0.544
333.15 K	985.2	0.472
343.15 K	979.6	0.417
353.15 K	973.3	0.342
